Structures can show the parent of a compound that is named as a salt.
What was measured:
[1] = test system: Ps. aeruginosa 5712; assay: MIC, agar dilution method in Mueller Hinton agar; format: cell-based; settings: Pseudomonas aeruginosa, read-out: Minimum Inhibiting Concentration Values
Method: (§1) In vitro activity was determined by minimum inhibitory concentration in a microorganism spectum by the agar dilution method in Mueller Hinton agar.

[2] = test system: Staph. aureus Smith; assay: MIC, agar dilution method in Mueller Hinton agar; format: cell-based; settings: Staphylococcus aureus, read-out: Minimum Inhibiting Concentration Values
Method: as §1

[3] = test system: E. coli ATCC 25922; assay: MIC, agar dilution method in Mueller Hinton agar; format: cell-based; settings: Escherichia coli, ATCC25922, read-out: Minimum Inhibiting Concentration Values
Method: as §1

[4] = test system: Staph. aureus ATCC 29213; assay: MIC, agar dilution method in Mueller Hinton agar; format: cell-based; settings: Staphylococcus aureus, ATCC29213, read-out: Minimum Inhibiting Concentration Values
Method: as §1

[5] = test system: Ps. aeruginosa ATCC 27853; assay: MIC, agar dilution method in Mueller Hinton agar; format: cell-based; settings: Pseudomonas aeruginosa, ATCC27853, read-out: Minimum Inhibiting Concentration Values
Method: as §1

[6] = test system: Str. pyogenes 4; assay: MIC, agar dilution method in Mueller Hinton agar; format: cell-based; settings: Streptococcus pyogenes, read-out: Minimum Inhibiting Concentration Values
Method: as §1

[7] = test system: E. coli TEM-1; assay: MIC, agar dilution method in Mueller Hinton agar; format: cell-based; settings: Escherichia coli, TEM1, read-out: Minimum Inhibiting Concentration Values
Method: as §1

[8] = test system: Str. pneumoniae 6301; assay: MIC, agar dilution method in Mueller Hinton agar; format: cell-based; settings: Streptococcus pneumoniae, 6301, read-out: Minimum Inhibiting Concentration Values
Method: as §1

[9] = test system: Prot. vulgaris ATCC 6380; assay: MIC, agar dilution method in Mueller Hinton agar; format: cell-based; settings: Proteus vulgaris, ATCC6380, read-out: Minimum Inhibiting Concentration Values
Method: as §1

[10] = test system: Pseudomonas aeruginosa BA; assay: Efficacy against systemic infections (septicemia) in mice; format: in vivo; settings: 96 h, sc (subcutaneous) 1, 3 and 5 h after challenge, survival day 4
How it was run: (§2)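 Swiss albino mice (16–20 g) infected i.p. with 4–10× the 48-h LD50 of each strain; compound given p.o. or s.c. at 1 and 3 h post-challenge, plus 5 h for P. aeruginosa BA. Five mice per group; ED50 (mg/kg) by probit analysis of day-4 survival.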

[11] = test system: Streptococcus pyogenes 15; assay: as above; format: in vivo; settings: 96 h, Streptococcus pyogenes 15, po (orally) 1 and 3 h after challenge, survival day 4
How it was run: as §2

[12] = test system: Escherichia coli 25922; assay: as above; format: in vivo; settings: 96 h, Escherichia coli 25922, po (orally) 1 and 3 h after challenge, survival day 4
How it was run: as §2

## Nc1nc(/C(=N/OCC(=O)O)C(=O)N[C@@H]2C(=O)N3C(C(=O)O)=C(/C=C4\CCN(CC(F)(F)F)C4=O)CS[C@H]23)cs1 [A, [6R-[3(E),6α,7β(Z)]]-7-[[(2-Amino-4-thiazolyl)[(carboxy-methoxy)imino]-acetyl]amino]-3-[[1-(2,2,2-trifluoroethyl)-2-oxo-3-pyrrolidinylidene]-methyl]-8-oxo-5-thia-1-aza-bicyclo[4.2.0]oct-2-ene-2-carboxylic acid disodium salt]
[1]
  MIC: 8 µg/mL
[2]
  MIC: 8 µg/mL
[3]
  MIC: 0.0625 µg/mL
[4]
  MIC: 16 µg/mL
[5]
  MIC: 8 µg/mL
[6]
  MIC: 0.125 µg/mL
[7]
  MIC: 0.0625 µg/mL
[8]
  MIC: 0.0625 µg/mL
[9]
  MIC: ≤ 0.0156 µg/mL
[10]
  ED50: 12 mg/kg
[11]
  ED50: > 0.8 mg/kg
[12]
  ED50: < 0.1 mg/kg

## Nc1nc(/C(=N/OCC(=O)O)C(=O)N[C@@H]2C(=O)N3C(C(=O)O)=C(/C=C4\CCN(CCF)C4=O)CS[C@H]23)cs1 [B, [6R-[3(E),6α,7β(Z)]]-7-[[(2-Amino-4-thiazolyl)[(carboxy-methoxy)imino]-acetyl]amino]-3-[[1-(2-fluoroethyl)-2-oxo-3-pyrrolidinylidene]methyl]-8-oxo-5-thia-1-azabicyclo[4.2.0]-oct-2-ene-2-carboxylic acid disodium salt]
[1]
  MIC: 4 µg/mL
[2]
  MIC: 8 µg/mL
[3]
  MIC: 0.0313 µg/mL
[4]
  MIC: 16 µg/mL
[5]
  MIC: 4 µg/mL
[6]
  MIC: 0.125 µg/mL
[7]
  MIC: 0.0313 µg/mL
[8]
  MIC: 0.0313 µg/mL
[9]
  MIC: ≤ 0.0156 µg/mL
[10]
  ED50: 3.5 mg/kg
[11]
  ED50: 0.5 mg/kg
[12]
  ED50: < 0.1 mg/kg
